MIC data for four compounds are collected here from publication PMC9022596, “Convergent Evolution of Antibiotic Tolerance in Patients with Persistent Methicillin-Resistant Staphylococcus aureus Bacteremia” (Infection and Immunity, 2022).

Holding throughout (experiment): microbe, parasite or virus in culture
The subject of experiment [1] is T1, Staphylococcus aureus PB0115.
T1 construct: PB0115
On the set-up: Broth microdilution MIC in cation-adjusted MHB-Ca2+, growth inhibition per EUCAST reading. The note with it: PB0115, 16 h. How it is done:
(§1) MICs were measured in cation-adjusted Mueller-Hinton broth (MHB) supplemented with 50 μg/mL CaCl2 (MHB-Ca^2+) via broth microdilution in 96-well plates with an inoculum of ∼5 × 10^5 CFU per mL. Antibiotic test concentrations ranged from 0.0625 μg/mL to 32 μg/mL by 2-fold dilutions. Plates were incubated at 37°C for 16 h without shaking, and results were interpreted in accordance with European Committee on Antimicrobial Susceptibility Testing reading guidelines ([72]). S. aureus ATCC 29213 was used as a quality-control strain. TCA cycle defects have been shown previously to cause antibiotic tolerance in laboratory strains of methicillin-sensitive S. aureus (MSSA) ([13], [16]). […] To test this hypothesis, we complemented three of the clinical isolates harboring loss-of-function citZ mutations with either wild-type citZ (pOS1-citZ) or empty vector (pOS1) and then measured bacterial survival through time after exposure to ceftaroline, daptomycin, vancomycin, or the combination of daptomycin plus ceftaroline (Fig. 3). These antibiotics were chosen for their clinical relevance in the treatment of severe MRSA infection.

Experiment [2] concerns T2, Staphylococcus aureus PB1505.
T2 construct: PB1505
On the set-up: Broth microdilution MIC in cation-adjusted MHB-Ca2+, growth inhibition per EUCAST reading. The note with it: PB1505, 16 h. How it is done: as §1

In experiment [3] the test system is T3, Staphylococcus aureus PB0208.
T3 construct: PB0208
More on the design: species or system Staphylococcus aureus clinical blood isolates and ATCC 29213; Broth microdilution MIC in cation-adjusted Mueller-Hinton broth with 50 ug/mL CaCl2, EUCAST reading, 37 C. The note with it: PB0208, 16 h, replicate MIC, MHB + 50 ug/mL CaCl2. As to the method:
(§2) MICs were measured in cation-adjusted Mueller-Hinton broth (MHB) supplemented with 50 μg/mL CaCl2 (MHB-Ca^2+) via broth microdilution in 96-well plates with an inoculum of ∼5 × 10^5 CFU per mL. Antibiotic test concentrations ranged from 0.0625 μg/mL to 32 μg/mL by 2-fold dilutions. Plates were incubated at 37°C for 16 h without shaking, and results were interpreted in accordance with European Committee on Antimicrobial Susceptibility Testing reading guidelines ([72]). S. aureus ATCC 29213 was used as a quality-control strain.

The test system of experiment [4] is T4, Staphylococcus aureus PB0603.
T4 construct: PB0603
More on the design: species or system Staphylococcus aureus clinical blood isolates and ATCC 29213; Broth microdilution MIC in cation-adjusted Mueller-Hinton broth with 50 ug/mL CaCl2, EUCAST reading, 37 C. The settings on record: PB0603, 16 h, replicate MIC, MHB + 50 ug/mL CaCl2. How it is done:
as §2

Experiment [5] concerns T5, Staphylococcus aureus PB0702.
T5 construct: PB0702
More on the design: species or system Staphylococcus aureus clinical blood isolates and ATCC 29213; Broth microdilution MIC in cation-adjusted Mueller-Hinton broth with 50 ug/mL CaCl2, EUCAST reading, 37 C. The settings on record: PB0702, 16 h, replicate MIC, MHB + 50 ug/mL CaCl2. As to the method: as §2

For experiment [6], the system named is T6, Staphylococcus aureus PB0906.
T6 construct: PB0906
More on the design: species or system Staphylococcus aureus clinical blood isolates and ATCC 29213; Broth microdilution MIC in cation-adjusted Mueller-Hinton broth with 50 ug/mL CaCl2, EUCAST reading, 37 C. The note with it: PB0906, 16 h, replicate MIC, MHB + 50 ug/mL CaCl2. How it is done:
as §2

Experiment [7] concerns T7, Staphylococcus aureus PB1802.
T7 construct: PB1802
More on the design: species or system Staphylococcus aureus clinical blood isolates and ATCC 29213; Broth microdilution MIC in cation-adjusted Mueller-Hinton broth with 50 ug/mL CaCl2, EUCAST reading, 37 C. The note with it: PB1802, 16 h, replicate MIC, MHB + 50 ug/mL CaCl2. How it is done:
as §2

Experiment [8] concerns T8, Staphylococcus aureus PB1405.
T8 construct: PB1405
On the set-up: species or system Staphylococcus aureus clinical blood isolates and ATCC 29213; Broth microdilution MIC in cation-adjusted Mueller-Hinton broth with 50 ug/mL CaCl2, EUCAST reading, 37 C. The settings on record: PB1405, 16 h, replicate MIC, MHB + 50 ug/mL CaCl2. As to the method: as §2

The subject of experiment [9] is T9, Staphylococcus aureus PB0411.
T9 construct: PB0411
More on the design: species or system Staphylococcus aureus clinical blood isolates and ATCC 29213; Broth microdilution MIC in cation-adjusted Mueller-Hinton broth with 50 ug/mL CaCl2, EUCAST reading, 37 C. The note with it: PB0411, 16 h, replicate MIC, MHB + 50 ug/mL CaCl2. How it is done: as §2

Experiment [10] relates to T10, Staphylococcus aureus PB0101.
T10 construct: PB0101
On the set-up: species or system Staphylococcus aureus clinical blood isolates and ATCC 29213; Broth microdilution MIC in cation-adjusted Mueller-Hinton broth with 50 ug/mL CaCl2, EUCAST reading, 37 C. The note with it: PB0101, 16 h, replicate MIC, MHB + 50 ug/mL CaCl2. How it is done: as §2

Experiment [11] relates to T11, Staphylococcus aureus PB0610.
T11 construct: PB0610
On the set-up: species or system Staphylococcus aureus clinical blood isolates and ATCC 29213; Broth microdilution MIC in cation-adjusted Mueller-Hinton broth with 50 ug/mL CaCl2, EUCAST reading, 37 C. The note with it: PB0610, 16 h, replicate MIC, MHB + 50 ug/mL CaCl2. How it is done: as §2

Experiment [12] deals with T12, Staphylococcus aureus PB1101.
T12 construct: PB1101
On the set-up: species or system Staphylococcus aureus clinical blood isolates and ATCC 29213; Broth microdilution MIC in cation-adjusted Mueller-Hinton broth with 50 ug/mL CaCl2, EUCAST reading, 37 C. The note with it: PB1101, 16 h, replicate MIC, MHB + 50 ug/mL CaCl2. How it is done: as §2

Experiment [13] deals with T13, Staphylococcus aureus PB0911.
T13 construct: PB0911
More on the design: species or system Staphylococcus aureus clinical blood isolates and ATCC 29213; Broth microdilution MIC in cation-adjusted Mueller-Hinton broth with 50 ug/mL CaCl2, EUCAST reading, 37 C. The note with it: PB0911, 16 h, replicate MIC, MHB + 50 ug/mL CaCl2. As to the method:
as §2

Where “and” joins values, the source holds several entries; their conditions need not be identical. Equal values may be shown once.

With `CCO/N=C(\C(=O)N[C@@H]1C(=O)N2C(C(=O)[O-])=C(Sc3nc(-c4cc[n+](C)cc4)cs3)CS[C@H]12)c1nsc(N)n1` [Ceftaroline], the MIC in experiment [1] (replicate 1) is 0.5 µg/mL; in experiment [1] (replicate 2) it was 0.5 µg/mL; in experiment [2] (replicate 1), 0.5 µg/mL; in [2] (replicate 2), 0.5 µg/mL; in [3] it was 0.5 µg/mL; in experiment [4], 0.25 µg/mL. For the same compound, the MIC in experiment [5] turned out to be 0.5 µg/mL; in experiment [6], 0.5 µg/mL; in experiment [7] it was 0.5 µg/mL; in [8] it was 0.25 µg/mL; in experiment [9], 0.5 µg/mL; in experiment [10], 0.5 µg/mL. Besides, the figures for the MIC in experiment [11], in experiment [12] and in [13] were 0.25 µg/mL, 0.5 µg/mL and 0.5 µg/mL, respectively.

For the compound `CCCCCCCCCC(=O)N[C@@H](Cc1c[nH]c2ccccc12)C(=O)N[C@H](CC(N)=O)C(=O)N[C@@H](CC(=O)O)C(=O)N[C@@H]1C(=O)NCC(=O)N[C@@H](CCCN)C(=O)N[C@@H](CC(=O)O)C(=O)N[C@H](C)C(=O)N[C@@H](CC(=O)O)C(=O)NCC(=O)N[C@H](CO)C(=O)N[C@@H]([C@H](C)CC(=O)O)C(=O)N[C@@H](CC(=O)c2ccccc2N)C(=O)O[C@@H]1C` [Daptomycin], the MIC was determined as 2 µg/mL in [1] (replicate 1); 2 µg/mL in [1] (replicate 2); 1 µg/mL in experiment [2] (replicate 1); 2 µg/mL in experiment [2] (replicate 2); 1 µg/mL in [3]; 2 µg/mL in [4]. Also, the MIC in experiment [5] was 2 µg/mL; in experiment [6], 2 µg/mL; in experiment [7] it was 2 µg/mL; in experiment [8], 2 µg/mL and 1 µg/mL; in [9], 1 µg/mL; in experiment [10], 1 µg/mL. In addition, the MIC in experiment [11] is 1 µg/mL; in experiment [12], 2 µg/mL; in experiment [13], 2 µg/mL and 1 µg/mL.

Regarding `CC(=O)NC[C@H]1CN(c2ccc(N3CCOCC3)c(F)c2)C(=O)O1` [Linezolid], the MIC in experiment [1] (replicate 1), in experiment [1] (replicate 2), in experiment [2] (replicate 1), in experiment [2] (replicate 2), in experiment [3] and in experiment [4] was 4 µg/mL in each case. In addition, the MIC in [5], in [6], in [7], in experiment [8], in [9] and in experiment [10] was 4 µg/mL throughout. Also, the MIC in experiment [11], in experiment [12] and in [13] was 4 µg/mL each time.

`CN[C@H](CC(C)C)C(=O)N[C@H]1C(=O)N[C@@H](CC(N)=O)C(=O)N[C@H]2C(=O)N[C@H]3C(=O)N[C@H](C(=O)N[C@H](C(=O)O)c4cc(O)cc(O)c4-c4cc3ccc4O)[C@H](O)c3ccc(c(Cl)c3)Oc3cc2cc(c3O[C@@H]2O[C@H](CO)[C@@H](O)[C@H](O)[C@H]2O[C@H]2C[C@](C)(N)[C@H](O)[C@H](C)O2)Oc2ccc(cc2Cl)[C@H]1O` [Vancomycin]: the MIC is 2 µg/mL in experiment [1] (replicate 1); 2 µg/mL in experiment [1] (replicate 2); 2 µg/mL in [2] (replicate 1); 2 µg/mL in [2] (replicate 2); 4 µg/mL in experiment [3]; 4 µg/mL and 2 µg/mL in [4]. In addition, the MIC in experiment [5], in [6], in experiment [7], in experiment [8], in experiment [9] and in experiment [10] was 2 µg/mL in each case. For the same compound, the MIC is 2 µg/mL and 4 µg/mL in [11]; 2 µg/mL in experiment [12]; 2 µg/mL in [13].
